Source: patent US9611276B2, “Imidazo bicyclic iminium compounds as antitumor agents” (THE BOARD OF TRUSTEES OF THE LELAND STANFORD JUNIOR …, priority 2012, dated 2017)

What was measured:
Type in all cases: cell-based
[1] = system: endogenous Hh target gene expression (Gli1 mRNA); test: Gli1 mRNA levels in NIH-3T3 cells with ShhN
Procedure: (§1) NIH-3T3 cells were obtained from ATCC and cultured in DMEM (Invitrogen, 11965) containing 10% (v/v) calf serum (ATCC, 30-2030), 1 mM sodium pyruvate (Invitrogen, 11360) and 1× PenStrep (Gibco, 15140).
(§2) All test compounds were dissolved in DMSO at 50 mM, serially diluted by 1:3, 1:4 or 1:5 in a 96-well translucent microplate (Greiner bio-one, 650201) and stored at −20° C. These serial dilutions were added to assay media freshly with final DMSO concentration of 0.2% (v/v).
Quantification of Gli1 mRNA levels in NIH-3T3 cells provides a measure of endogenous Hh target gene expression. NIH 3T3 cells were seeded into 96-well plates (36,000 cells/well), cultured to confluency for 24 hrs and then incubated with test compounds in DMEM (Invitrogen, 11965) containing 0.5% (v/v) calf serum (ATCC, 30-2030), 1 mM sodium pyruvate (Invitrogen, 11360), 1× PenStrep (Gibco, 15140) and 10% (v/v) ShhN-conditioned medium for 24 hrs. The cells were lysed and the lysate was used to prepare cDNA using a Cells-to-CT kit (Ambion) according to the manufacturer's protocols. The cDNA was then quantified with Gli1 and GAPDH Taqman probes (Mm00494645m1 and Mm99999914g1, Applied Biosystems) on a Roche Lightcycler 480, using the 2nd derivative/maximum method to obtain Ct values. Biological triplicates were analyzed for each test compounds.

Gli1 = molecular target: T1, Gli1 (Homo sapiens, UniProt P08151); test: Overexpression of Gli1 in NIH-3T3 cells, firefly luciferase reporter
T1 construct: expressed in transfected cells; host or cells: NIH-3T3 (mouse fibroblasts)
T1 sequence (P08151 1-1106): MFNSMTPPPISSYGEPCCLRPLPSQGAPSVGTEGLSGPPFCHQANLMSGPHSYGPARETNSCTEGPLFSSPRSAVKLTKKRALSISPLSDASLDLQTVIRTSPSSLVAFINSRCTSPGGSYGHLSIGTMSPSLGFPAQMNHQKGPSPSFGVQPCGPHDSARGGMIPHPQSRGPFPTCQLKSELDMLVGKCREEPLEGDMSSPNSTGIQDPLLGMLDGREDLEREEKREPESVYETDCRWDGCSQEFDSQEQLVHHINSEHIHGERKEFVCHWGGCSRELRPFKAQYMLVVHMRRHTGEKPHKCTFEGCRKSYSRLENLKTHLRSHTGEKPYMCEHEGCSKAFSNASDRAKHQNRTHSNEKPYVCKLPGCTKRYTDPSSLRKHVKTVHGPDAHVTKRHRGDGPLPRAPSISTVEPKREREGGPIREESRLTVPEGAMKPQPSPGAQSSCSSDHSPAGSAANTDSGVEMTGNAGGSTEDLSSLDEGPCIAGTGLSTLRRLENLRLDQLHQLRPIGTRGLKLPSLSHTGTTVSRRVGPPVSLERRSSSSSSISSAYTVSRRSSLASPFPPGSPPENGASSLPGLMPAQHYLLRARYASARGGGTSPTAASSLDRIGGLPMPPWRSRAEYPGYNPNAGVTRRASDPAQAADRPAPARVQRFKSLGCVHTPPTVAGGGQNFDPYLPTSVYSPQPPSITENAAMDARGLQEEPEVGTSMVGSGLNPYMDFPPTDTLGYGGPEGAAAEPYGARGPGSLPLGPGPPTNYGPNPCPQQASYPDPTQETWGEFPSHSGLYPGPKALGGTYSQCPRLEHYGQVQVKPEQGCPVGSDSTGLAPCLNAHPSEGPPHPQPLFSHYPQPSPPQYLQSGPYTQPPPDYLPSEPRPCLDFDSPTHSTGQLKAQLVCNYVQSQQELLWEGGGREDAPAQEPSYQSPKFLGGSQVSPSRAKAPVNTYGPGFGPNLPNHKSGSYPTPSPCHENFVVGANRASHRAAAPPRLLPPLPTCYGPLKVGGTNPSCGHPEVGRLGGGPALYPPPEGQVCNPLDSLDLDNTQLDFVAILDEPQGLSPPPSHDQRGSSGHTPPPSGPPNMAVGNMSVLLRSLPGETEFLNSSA
Procedure: as §1, §2
Overexpression of Gli1 or Gli2 in NIH-3T3 cells provides a measure of Gli1- or Gli1/Gli2-induced pathway activity, respectively. NIH 3T3 cells were seeded into a 24-well plate (35,000 cells/well) and cultured for 30 hrs. […] The cells were lysed with passive lysis buffer (200 μL/well), and 10 μL of the obtained lysate were analyzed for firefly and Renilla luciferase activities using Dual-Luciferase Reporter Assay System (Promega, E1960) (50 μL/well of each reagent) on a microplate luminometer (Veritas). Biological triplicates were analyzed for each test compounds.

Gli3 = test: Hh ligand-dependent Gli3 processing in Shh-EGFP cells
Procedure: Each compound or vehicle treatment was conducted in the presence or absence of 10% (v/v) Shh-N-conditioned medium. The cells were then lysed by incubation with SDS-PAGE loading buffer composed of 50 mM Tris-HCl, pH 6.8, 2% (w/v) SDS, 8% (v/v) glycerol, 100 mM DTT, 0.1 mg/mL bromophenol blue, EDTA-free protease inhibitor cocktail (Roche) and Phosstop (Roche) for 5 min in a cold room. […] The membranes were dehydrated with methanol and probed overnight at 4° C. with goat polyclonal anti-Gli3 antibody (1 μg/mL; R & D Systems, AF3690) in PBS containing 4% (w/v) non-fat dry milk and 0.01% (v/v) Tween-20 (immunoblot blocking buffer). […] Band intensities of Gli3FL and Gli3R were quantified using ImageJ64 software (NIH), and three independent experiments were used to determine the average Gli3FL/Gli3R ratio for each compound.

Smo = molecular target: T2, Smo (Mus musculus, UniProt P56726); test: Smo trafficking assay in NIH 3T3 cells; conditions: Hh-responsive cells, ShhN stimulation
T2 construct: endogenous in cells; host or cells: NIH 3T3
Description: The cells were imaged using a Plan Apochromat 63×/1.4-0.6 oil immersion objective on an upright Leica DM4500B compound microscope.

T2 sequence (P56726 33-793): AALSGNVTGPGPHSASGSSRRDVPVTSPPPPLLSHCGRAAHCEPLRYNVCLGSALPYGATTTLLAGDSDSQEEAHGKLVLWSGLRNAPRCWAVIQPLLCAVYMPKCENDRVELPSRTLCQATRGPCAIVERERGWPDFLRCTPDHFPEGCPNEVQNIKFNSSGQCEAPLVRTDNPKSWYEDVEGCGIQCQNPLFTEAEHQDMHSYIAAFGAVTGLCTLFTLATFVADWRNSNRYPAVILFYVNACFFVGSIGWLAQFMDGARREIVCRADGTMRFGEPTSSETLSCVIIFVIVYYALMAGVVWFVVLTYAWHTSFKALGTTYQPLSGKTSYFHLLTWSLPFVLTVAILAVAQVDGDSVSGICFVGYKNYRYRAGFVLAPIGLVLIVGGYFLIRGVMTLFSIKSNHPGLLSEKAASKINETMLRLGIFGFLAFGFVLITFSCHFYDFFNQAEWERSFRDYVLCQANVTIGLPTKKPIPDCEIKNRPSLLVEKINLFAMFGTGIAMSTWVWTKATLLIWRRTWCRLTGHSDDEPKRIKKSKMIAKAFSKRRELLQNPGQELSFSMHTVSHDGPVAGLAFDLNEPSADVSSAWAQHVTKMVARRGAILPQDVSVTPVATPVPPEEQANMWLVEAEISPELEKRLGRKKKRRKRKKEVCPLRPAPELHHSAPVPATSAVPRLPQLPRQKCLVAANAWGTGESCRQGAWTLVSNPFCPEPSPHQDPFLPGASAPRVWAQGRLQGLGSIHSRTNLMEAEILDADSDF

## CCOc1ccc(-[n+]2cc(-c3ccc(Br)cc3)n3c2CCCCC3)cc1 [Compound A-1]
[1]
  ShhN-dependent expression of endogenous target genes (Gli1): inhibited
[1]; Mus musculus, NIH3T3, NIH-3T3 w/ ShhN
  IC50: 5 µM
Gli1
  Exogenous Gli1 activity: potently blocked
Gli3
  Effect on Gli3FL phosphorylation: Nor did the compound prevent Gli3FL phosphorylation
Gli3; ShhN stimulation
  Effect on Gli3 processing, Gli3FL/Gli3R ratio: did not perturb Gli3 processing
Smo
  Effect on Smo localization / trafficking: did not affect Smo localization
